What all share (assay): relative viability (nuclei count vs DMSO), 5 days (fraction); higher = more cells survive
Compound in test [1]: C(C(=O)C(=O)O)Br [Bromopyruvate] + CC(=O)Nc1cccc(-n2c(=O)n(C3CC3)c(=O)c3c(Nc4ccc(I)cc4F)n(C)c(=O)c(C)c32)c1 [Trametinib] (partner 0.02 µM)
In a few lines:
(§1)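 Lung cancer cell lines in 1536-well plates were dosed by pin tool the day after seeding, either with one drug alone or with a fixed anchor-drug dose plus five library-drug doses (not always all listed) in √10 steps. After 5 days, cells were fixed and their nuclei stained in one step (final 0.05% Triton X-100, 1% formaldehyde, 1 ug/ml Hoechst), then counted on 4× images. Relative viability is the nuclei count in treated wells divided by that in vehicle wells. Values are medians of duplicate plates.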

Compound in test [2]: C(C(=O)C(=O)O)Br [Bromopyruvate] + C[C@]1(O)C[C@@H](c2nc(-c3ccc4ccc(-c5ccccc5)nc4c3)c3c(N)nccn32)C1 [Linsitinib] (partner 1 µM)
An outline of the steps:
as §1

Compound in test [3]: C(C(=O)C(=O)O)Br [Bromopyruvate] + CC(=O)c1c(C)c2cnc(Nc3ccc(N4CCNCC4)cn3)nc2n(C2CCCC2)c1=O [Palbociclib] (partner 0.5 µM)
An outline of the steps: as §1

Compound in test [4]: C(C(=O)C(=O)O)Br [Bromopyruvate] + CC1(C)CCC(c2ccc(Cl)cc2)=C(CN2CCN(c3ccc(C(=O)NS(=O)(=O)c4ccc(N[C@H](CCN5CCOCC5)CSc5ccccc5)c(S(=O)(=O)C(F)(F)F)c4)cc3)CC2)C1 [Navitoclax] (partner 0.5 µM)
An outline of the steps: as §1

Consider 6 cell lines from the supplement of paper PMC10307832.

In the case of PC-14, the relative viability in test [1] (first compound 1 µM) was determined as 0.8; in test [1] (first compound 3.162 µM) it was 0.717; in test [1] (first compound 10 µM), 0.953; in test [1] (first compound 31.62 µM), 0.718; in test [1] (first compound 100 µM) it was 0.753; in test [2] (first compound 1 µM), 1.03. For the same cell line, the relative viability in test [2] (first compound 3.162 µM) came to 1.01; in test [2] (first compound 10 µM), 0.938; in test [2] (first compound 31.62 µM), 0.944; in test [2] (first compound 100 µM) it was 1.04; in test [3] (first compound 1 µM), 0.577; in test [3] (first compound 3.162 µM) it was 0.538. The relative viability in test [3] (first compound 10 µM) was determined as 0.686; in test [3] (first compound 31.62 µM), 0.573; in test [3] (first compound 100 µM), 0.411; in test [4] (first compound 1 µM), 1.02; in test [4] (first compound 3.162 µM), 1.02; in test [4] (first compound 10 µM) it was 1.07. In addition, the relative viability in test [4] (first compound 31.62 µM) turned out to be 1.02; in test [4] (first compound 100 µM), 1.01.
With RERF-LC-KJ, the relative viability was found to be 0.657 in test [1] (first compound 1 µM); 0.984 in test [1] (first compound 3.162 µM); 0.921 in test [1] (first compound 10 µM); 0.85 in test [1] (first compound 31.62 µM); 0.909 in test [1] (first compound 100 µM); 0.885 in test [2] (first compound 1 µM). Moreover, the relative viability came out at 0.935 in test [2] (first compound 3.162 µM); 0.952 in test [2] (first compound 10 µM); 0.906 in test [2] (first compound 31.62 µM); 0.933 in test [2] (first compound 100 µM); 1.04 in test [3] (first compound 1 µM); 1.18 in test [3] (first compound 3.162 µM). The relative viability in test [3] (first compound 10 µM) came out at 1.19; in test [3] (first compound 31.62 µM), 1.14; in test [3] (first compound 100 µM), 0.966; in test [4] (first compound 1 µM), 1.05; in test [4] (first compound 3.162 µM), 0.822; in test [4] (first compound 10 µM) it was 1.05. Besides, the relative viability in test [4] (first compound 31.62 µM) was found to be 0.868; in test [4] (first compound 100 µM) it was 0.98.
With SK-LU-1, the relative viability in test [1] (first compound 1 µM) is 0.503; in test [1] (first compound 3.162 µM), 0.469; in test [1] (first compound 10 µM), 0.599; in test [1] (first compound 31.62 µM) it was 0.467; in test [1] (first compound 100 µM), 0.538; in test [2] (first compound 1 µM) it was 1.02. Also, the relative viability in test [2] (first compound 3.162 µM) came out at 1.09; in test [2] (first compound 10 µM), 1.12; in test [2] (first compound 31.62 µM), 0.964; in test [2] (first compound 100 µM), 1.09; in test [3] (first compound 1 µM), 0.372; in test [3] (first compound 3.162 µM) it was 0.363. Also, the relative viability amounted to 0.365 in test [3] (first compound 10 µM); 0.346 in test [3] (first compound 31.62 µM); 0.428 in test [3] (first compound 100 µM); 0.866 in test [4] (first compound 1 µM); 0.971 in test [4] (first compound 3.162 µM); 0.935 in test [4] (first compound 10 µM). Besides, the relative viability in test [4] (first compound 31.62 µM) is 0.734; in test [4] (first compound 100 µM), 0.574.
Regarding SK-MES-1, the relative viability was 0.631 in test [1] (first compound 1 µM); 0.547 in test [1] (first compound 3.162 µM); 0.511 in test [1] (first compound 10 µM); 0.578 in test [1] (first compound 31.62 µM); 0.574 in test [1] (first compound 100 µM); 1.07 in test [2] (first compound 1 µM). In addition, the relative viability in test [2] (first compound 3.162 µM) was determined as 1.05; in test [2] (first compound 10 µM), 1.08; in test [2] (first compound 31.62 µM) it was 0.941; in test [2] (first compound 100 µM), 1.06; in test [3] (first compound 1 µM), 0.352; in test [3] (first compound 3.162 µM), 0.344. The relative viability was 0.29 in test [3] (first compound 10 µM); 0.32 in test [3] (first compound 31.62 µM); 0.319 in test [3] (first compound 100 µM); 1.1 in test [4] (first compound 1 µM); 1.25 in test [4] (first compound 3.162 µM); 1.17 in test [4] (first compound 10 µM). Further, the relative viability worked out at 1.29 in test [4] (first compound 31.62 µM) and 1.26 in test [4] (first compound 100 µM).
As for SW 1573, the relative viability in test [1] (first compound 1 µM) worked out at 0.582; in test [1] (first compound 3.162 µM), 0.576; in test [1] (first compound 10 µM), 0.608; in test [1] (first compound 31.62 µM), 0.432; in test [1] (first compound 100 µM), 0.0469; in test [2] (first compound 1 µM), 0.839. Further, the relative viability in test [2] (first compound 3.162 µM) was determined as 0.842; in test [2] (first compound 10 µM), 0.794; in test [2] (first compound 31.62 µM) it was 0.776; in test [2] (first compound 100 µM), 0.651; in test [3] (first compound 1 µM), 0.401; in test [3] (first compound 3.162 µM), 0.395. Besides, the relative viability in test [3] (first compound 10 µM) came to 0.373; in test [3] (first compound 31.62 µM), 0.266; in test [3] (first compound 100 µM), 0.0467; in test [4] (first compound 1 µM), 0.927; in test [4] (first compound 3.162 µM) it was 1.17; in test [4] (first compound 10 µM), 1.02. The relative viability in test [4] (first compound 31.62 µM) stood at 1.11; in test [4] (first compound 100 µM), 0.487.
For UMC-11, the relative viability was determined as 0.746 in test [1] (first compound 1 µM); 0.604 in test [1] (first compound 3.162 µM); 0.622 in test [1] (first compound 10 µM); 0.732 in test [1] (first compound 31.62 µM); 0.748 in test [1] (first compound 100 µM); 1.03 in test [2] (first compound 1 µM). The relative viability is 1.08 in test [2] (first compound 3.162 µM); 0.884 in test [2] (first compound 10 µM); 0.987 in test [2] (first compound 31.62 µM); 1.03 in test [2] (first compound 100 µM); 0.343 in test [3] (first compound 1 µM); 0.353 in test [3] (first compound 3.162 µM). The relative viability in test [3] (first compound 10 µM) turned out to be 0.324; in test [3] (first compound 31.62 µM), 0.367; in test [3] (first compound 100 µM) it was 0.356; in test [4] (first compound 1 µM), 0.289; in test [4] (first compound 3.162 µM), 0.291; in test [4] (first compound 10 µM), 0.304. For the same cell line, the relative viability came to 0.297 in test [4] (first compound 31.62 µM) and 0.288 in test [4] (first compound 100 µM).
